Tests used:
[1] = test system: human ovarian cancer epithelial cells from ascites fluid; test: Tumor in Dish model using primary tumor cells: cancer cells; type: cell-based; settings: TiD with primary patient cells, FIG. 5
Description: Human ovarian cancer epithelial cells were isolated from the ascites fluid of a patient and combined with normal cells as described in Example 1 to form TiD.

[2] = test system: normal cells in the PLiD

N.N.[Cl][Pt][Cl] [cisplatin]
killing of ovarian cancer cells from the ascites fluid [1]: killed most of the ovarian cancer cells | effect on the surrounding normal cells [2]: affected the normal cells

— US9494573B2, “In vitro tumor in dish kit and method” (University of Kansas, priority 2012, dated 2016)
